Assay results from ChEMBL document CHEMBL1909046, “DrugMatrix in vitro pharmacology data”.

Tests used:
[1] = DRUGMATRIX: GABAA, Muscimol, Central radioligand binding (ligand: [3H] Muscimol); type: cell membranes, Rattus norvegicus, Wistar, Brain, Membrane; settings: Not Active = under 50% inhibition at 10 µM
[2] = biological target: Mitogen-activated protein kinase 1 (Homo sapiens, UniProt P28482); experiment: DRUGMATRIX: Protein Serine/Threonine Kinase, ERK2 enzyme inhibition (substrate: Myelin Basic Protein); set-up: species or system Escherichia coli; settings: Not Active = under 50% inhibition at 10 µM
Chain of Mitogen-activated protein kinase 1 (P28482 whole entry): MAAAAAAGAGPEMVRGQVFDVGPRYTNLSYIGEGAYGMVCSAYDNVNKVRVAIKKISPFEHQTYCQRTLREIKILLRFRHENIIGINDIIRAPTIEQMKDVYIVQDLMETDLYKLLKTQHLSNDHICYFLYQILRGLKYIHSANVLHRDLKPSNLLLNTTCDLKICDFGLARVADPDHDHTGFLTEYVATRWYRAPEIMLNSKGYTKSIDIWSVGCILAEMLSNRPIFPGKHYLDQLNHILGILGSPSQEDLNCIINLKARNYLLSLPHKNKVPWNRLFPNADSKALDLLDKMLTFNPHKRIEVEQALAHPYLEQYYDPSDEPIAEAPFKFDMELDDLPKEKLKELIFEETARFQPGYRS

[3] = biological target: T1, Muscarinic acetylcholine receptor M4 (Homo sapiens, UniProt P08173); type: cell membranes, CHO-K1, Membrane; settings: cho-k1; further: in other assays of this panel Not Active means under 50% inhibition at 10 µM
T1 sequence (P08173 whole entry): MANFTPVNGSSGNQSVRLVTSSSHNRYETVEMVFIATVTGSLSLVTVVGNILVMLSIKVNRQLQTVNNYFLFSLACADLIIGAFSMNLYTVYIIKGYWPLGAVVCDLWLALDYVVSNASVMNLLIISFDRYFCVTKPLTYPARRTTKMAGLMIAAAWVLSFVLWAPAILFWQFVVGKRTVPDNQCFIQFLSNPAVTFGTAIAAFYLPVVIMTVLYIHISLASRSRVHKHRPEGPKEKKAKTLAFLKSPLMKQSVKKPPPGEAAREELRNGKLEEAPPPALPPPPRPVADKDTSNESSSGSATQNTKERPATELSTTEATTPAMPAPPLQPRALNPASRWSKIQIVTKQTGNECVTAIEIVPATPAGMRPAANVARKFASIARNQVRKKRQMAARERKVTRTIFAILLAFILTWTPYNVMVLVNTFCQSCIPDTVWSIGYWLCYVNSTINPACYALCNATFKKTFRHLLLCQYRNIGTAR

Calcitonin receptor = biological target: T2, Calcitonin receptor (Homo sapiens, UniProt P30988); type: cell membranes, Membrane; settings: t47d; further: in other assays of this panel Not Active means under 50% inhibition at 10 µM
T2 sequence (P30988 whole entry): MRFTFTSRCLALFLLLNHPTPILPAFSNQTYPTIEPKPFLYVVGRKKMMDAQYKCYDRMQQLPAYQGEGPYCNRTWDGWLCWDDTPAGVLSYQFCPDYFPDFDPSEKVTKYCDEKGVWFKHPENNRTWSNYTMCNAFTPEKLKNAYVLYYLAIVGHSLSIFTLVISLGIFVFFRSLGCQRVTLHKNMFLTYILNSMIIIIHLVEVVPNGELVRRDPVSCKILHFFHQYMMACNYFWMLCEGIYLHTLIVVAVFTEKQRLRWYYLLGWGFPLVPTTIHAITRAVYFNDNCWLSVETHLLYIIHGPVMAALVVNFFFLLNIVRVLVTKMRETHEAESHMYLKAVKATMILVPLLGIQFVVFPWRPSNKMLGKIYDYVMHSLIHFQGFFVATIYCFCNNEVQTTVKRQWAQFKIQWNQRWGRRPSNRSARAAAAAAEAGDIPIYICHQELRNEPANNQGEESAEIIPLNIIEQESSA

[4] = biological target: Tyrosine-protein kinase Fyn (Homo sapiens, UniProt P06241); experiment: biochemical; type: cell-based, Insect cells; settings: insect cells;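 further: enzymatic inhibition of Fyn kinase activity measured with Poly(Glu:Tyr) as the phosphorylation substrate; in other assays of this panel Not Active means under 50% inhibition at 10 µM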
Chain of Tyrosine-protein kinase Fyn (P06241 whole entry): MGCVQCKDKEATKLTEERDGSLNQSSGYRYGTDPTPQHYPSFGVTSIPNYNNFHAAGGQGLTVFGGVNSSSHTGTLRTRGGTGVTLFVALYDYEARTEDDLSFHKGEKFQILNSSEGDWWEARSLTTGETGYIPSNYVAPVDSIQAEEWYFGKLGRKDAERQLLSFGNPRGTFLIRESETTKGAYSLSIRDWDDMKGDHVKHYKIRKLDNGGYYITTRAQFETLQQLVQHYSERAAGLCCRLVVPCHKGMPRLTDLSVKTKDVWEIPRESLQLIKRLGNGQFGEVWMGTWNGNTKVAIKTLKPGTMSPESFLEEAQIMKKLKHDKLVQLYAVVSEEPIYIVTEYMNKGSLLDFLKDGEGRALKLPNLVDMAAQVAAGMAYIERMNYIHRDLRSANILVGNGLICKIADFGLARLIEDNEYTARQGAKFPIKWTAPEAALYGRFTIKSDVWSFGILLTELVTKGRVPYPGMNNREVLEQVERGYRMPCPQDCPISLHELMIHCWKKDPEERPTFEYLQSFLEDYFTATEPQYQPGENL

[5] = DRUGMATRIX: Serotonin (5-Hydroxytryptamine) 5-HT3 radioligand binding (ligand: [3H] GR-65630); type: cell membranes, Membrane; settings: hek293; Not Active = under 50% inhibition at 10 µM
[6] = biological target: cGMP-specific 3',5'-cyclic phosphodiesterase (Homo sapiens, UniProt O76074); experiment: DRUGMATRIX: Phosphodiesterase PDE5 enzyme inhibition (substrate: [3H]cGMP + cGMP); type: tissue-based, Platelet; settings: platelet; Not Active = under 50% inhibition at 10 µM
[7] = biological target: Protein phosphatase 3 catalytic subunit alpha (Homo sapiens, UniProt Q08209); set-up: species or system Escherichia coli;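 further: inhibition of calcineurin (PP2B) enzyme activity, measured with DiFMUP as the substrate; in other assays of this panel Not Active means under 50% inhibition at 10 µM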
[8] = DRUGMATRIX: Sigma2 radioligand binding (ligand: [3H] Ifenprodil); type: cell membranes, Rattus norvegicus, Wistar, Brain, Membrane; settings: Not Active = under 50% inhibition at 10 µM
D(1A) dopamine receptor = D(1A) dopamine receptor (Homo sapiens, UniProt P21728); experiment: DRUGMATRIX: Dopamine D1 radioligand binding (ligand: [3H] SCH-23390); type: cell membranes, CHO, Membrane; settings: cho; Not Active = under 50% inhibition at 10 µM
Chain of D(1A) dopamine receptor (P21728 whole entry): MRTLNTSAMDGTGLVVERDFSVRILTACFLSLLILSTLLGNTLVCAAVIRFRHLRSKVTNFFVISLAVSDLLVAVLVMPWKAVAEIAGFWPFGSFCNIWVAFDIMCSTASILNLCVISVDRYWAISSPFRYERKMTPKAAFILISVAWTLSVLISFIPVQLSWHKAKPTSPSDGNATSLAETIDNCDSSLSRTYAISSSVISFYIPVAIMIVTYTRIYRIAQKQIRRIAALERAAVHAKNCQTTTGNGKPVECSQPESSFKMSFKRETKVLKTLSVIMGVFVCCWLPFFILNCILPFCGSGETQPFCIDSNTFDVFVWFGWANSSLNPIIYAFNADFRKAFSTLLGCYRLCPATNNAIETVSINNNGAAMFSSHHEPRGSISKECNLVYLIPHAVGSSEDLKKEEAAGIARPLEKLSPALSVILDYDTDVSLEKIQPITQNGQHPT

[9] = DRUGMATRIX: Phorbol Ester radioligand binding (ligand: [3H] PDBu); type: cell membranes, Mus musculus, ICR, Brain, Membrane; settings: Not Active = under 50% inhibition at 10 µM
[10] = DRUGMATRIX: Glutamate, NMDA, Phencyclidine radioligand binding (ligand: [3H] TCP); type: cell membranes, Rattus norvegicus, Wistar, Cerebral cortex, Membrane; settings: Not Active = under 50% inhibition at 10 µM
[11] = biological target: T3, C-X-C chemokine receptor type 1 (Homo sapiens, UniProt P25024); further: in other assays of this panel Not Active means under 50% inhibition at 10 µM
T3 sequence (P25024 whole entry): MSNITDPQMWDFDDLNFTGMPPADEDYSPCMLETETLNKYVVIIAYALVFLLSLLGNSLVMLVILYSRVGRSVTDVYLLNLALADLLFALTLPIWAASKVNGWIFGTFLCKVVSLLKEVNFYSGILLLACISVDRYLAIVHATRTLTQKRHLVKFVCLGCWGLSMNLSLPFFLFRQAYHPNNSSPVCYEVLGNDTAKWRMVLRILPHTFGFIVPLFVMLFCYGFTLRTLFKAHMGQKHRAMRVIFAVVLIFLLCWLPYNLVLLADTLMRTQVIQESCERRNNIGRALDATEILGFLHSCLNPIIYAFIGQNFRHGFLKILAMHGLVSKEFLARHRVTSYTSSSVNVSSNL

Insulin receptor = Insulin receptor (Rattus norvegicus, UniProt P15127); type: cell membranes, Wistar, Liver, Membrane; further: in other assays of this panel Not Active means under 50% inhibition at 10 µM
Chain of Insulin receptor (P15127 27-759 limits assumed): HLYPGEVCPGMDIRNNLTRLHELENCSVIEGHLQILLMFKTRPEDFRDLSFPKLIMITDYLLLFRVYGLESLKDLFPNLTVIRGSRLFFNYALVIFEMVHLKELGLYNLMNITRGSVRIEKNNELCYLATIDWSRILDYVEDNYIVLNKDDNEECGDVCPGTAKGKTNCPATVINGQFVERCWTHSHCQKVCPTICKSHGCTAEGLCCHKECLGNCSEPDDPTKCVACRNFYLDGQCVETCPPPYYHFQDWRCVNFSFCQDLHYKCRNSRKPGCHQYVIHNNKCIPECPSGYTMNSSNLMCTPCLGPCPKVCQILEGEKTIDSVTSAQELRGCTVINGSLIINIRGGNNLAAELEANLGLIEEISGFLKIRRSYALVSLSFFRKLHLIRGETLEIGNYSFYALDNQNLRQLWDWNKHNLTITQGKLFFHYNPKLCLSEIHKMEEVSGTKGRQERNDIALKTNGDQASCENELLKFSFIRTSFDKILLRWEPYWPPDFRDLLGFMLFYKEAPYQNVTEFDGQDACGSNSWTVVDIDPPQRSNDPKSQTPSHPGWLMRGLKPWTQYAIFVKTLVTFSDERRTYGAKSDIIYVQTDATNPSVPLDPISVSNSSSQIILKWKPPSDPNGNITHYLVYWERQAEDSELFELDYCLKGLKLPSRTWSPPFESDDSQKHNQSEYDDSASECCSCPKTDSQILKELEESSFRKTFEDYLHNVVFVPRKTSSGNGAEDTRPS
Chain of Insulin receptor (P15127 764-1383 limits assumed): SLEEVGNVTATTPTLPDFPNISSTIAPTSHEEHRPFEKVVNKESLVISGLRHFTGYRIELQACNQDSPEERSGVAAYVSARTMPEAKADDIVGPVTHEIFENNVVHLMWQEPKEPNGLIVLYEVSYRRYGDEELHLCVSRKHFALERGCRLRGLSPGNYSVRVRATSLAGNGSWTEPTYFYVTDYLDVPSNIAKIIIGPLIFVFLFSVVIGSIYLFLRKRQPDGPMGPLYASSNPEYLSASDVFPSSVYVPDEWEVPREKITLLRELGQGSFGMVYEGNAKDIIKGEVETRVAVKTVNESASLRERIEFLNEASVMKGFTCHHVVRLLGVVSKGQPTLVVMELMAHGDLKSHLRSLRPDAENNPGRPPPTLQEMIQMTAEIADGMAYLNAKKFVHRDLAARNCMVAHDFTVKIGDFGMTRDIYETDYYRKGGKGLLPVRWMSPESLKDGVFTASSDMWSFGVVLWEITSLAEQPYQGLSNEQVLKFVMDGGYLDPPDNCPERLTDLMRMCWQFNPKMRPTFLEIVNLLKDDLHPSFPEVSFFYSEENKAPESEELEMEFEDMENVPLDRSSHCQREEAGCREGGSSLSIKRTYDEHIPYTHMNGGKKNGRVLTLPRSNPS

Neutrophil elastase = biological target: T4, Neutrophil elastase (Homo sapiens, UniProt P08246); type: tissue-based
T4 sequence (P08246 whole entry): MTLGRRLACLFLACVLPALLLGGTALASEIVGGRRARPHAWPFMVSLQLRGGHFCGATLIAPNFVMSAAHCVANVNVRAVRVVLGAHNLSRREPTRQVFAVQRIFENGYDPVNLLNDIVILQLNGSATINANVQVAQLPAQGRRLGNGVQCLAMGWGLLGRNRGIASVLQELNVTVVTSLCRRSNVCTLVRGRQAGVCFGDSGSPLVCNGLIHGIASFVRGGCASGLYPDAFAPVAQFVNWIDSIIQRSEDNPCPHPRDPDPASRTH

[12] = DRUGMATRIX: Glutamate, AMPA radioligand binding (ligand: [3H] AMPA); type: cell membranes, Rattus norvegicus, Wistar, Cerebral cortex, Membrane; settings: Not Active = under 50% inhibition at 10 µM
[13] = biological target: 5-hydroxytryptamine receptor 4 (Cavia porcellus, UniProt O70528); type: cell membranes, Dunkin-Hartley, Striatum, Membrane; further: in other assays of this panel Not Active means under 50% inhibition at 10 µM
Chain of 5-hydroxytryptamine receptor 4 (O70528 whole entry): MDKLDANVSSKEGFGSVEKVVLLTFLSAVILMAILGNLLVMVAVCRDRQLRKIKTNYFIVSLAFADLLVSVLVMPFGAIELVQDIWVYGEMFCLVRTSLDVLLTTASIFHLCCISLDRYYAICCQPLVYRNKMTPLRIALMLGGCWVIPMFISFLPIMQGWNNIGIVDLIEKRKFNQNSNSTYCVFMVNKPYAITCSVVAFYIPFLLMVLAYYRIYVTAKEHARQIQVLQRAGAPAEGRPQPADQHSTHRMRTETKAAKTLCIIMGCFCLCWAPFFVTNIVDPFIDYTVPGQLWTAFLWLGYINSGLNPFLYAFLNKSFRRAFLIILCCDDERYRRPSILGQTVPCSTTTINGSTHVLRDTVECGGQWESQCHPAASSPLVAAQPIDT

[14] = biological target: Mitogen-activated protein kinase 14 (Homo sapiens, UniProt Q16539); set-up: species or system Escherichia coli
Chain of Mitogen-activated protein kinase 14 (Q16539 whole entry): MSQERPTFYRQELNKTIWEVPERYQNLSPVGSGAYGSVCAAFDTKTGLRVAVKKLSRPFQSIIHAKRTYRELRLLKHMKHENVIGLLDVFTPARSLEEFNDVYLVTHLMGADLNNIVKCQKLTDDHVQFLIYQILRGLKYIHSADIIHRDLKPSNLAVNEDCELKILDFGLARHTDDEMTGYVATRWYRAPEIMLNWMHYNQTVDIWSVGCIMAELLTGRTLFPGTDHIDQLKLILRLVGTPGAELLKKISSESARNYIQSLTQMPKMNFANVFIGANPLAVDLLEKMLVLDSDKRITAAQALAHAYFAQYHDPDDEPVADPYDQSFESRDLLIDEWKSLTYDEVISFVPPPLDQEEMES

[15] = DRUGMATRIX: Sodium/nucleoside co-transporter radioligand binding (ligand: nitrobenzylthioinosine); type: cell membranes, Cavia porcellus, Dunkin-Hartley, Cerebral cortex, Membrane; settings: Not Active = under 50% inhibition at 10 µM
[16] = biological target: Sodium-dependent dopamine transporter (Homo sapiens, UniProt Q01959); experiment: DRUGMATRIX: Dopamine Transporter radioligand binding (ligand: [125I] RTI-55); type: cell membranes, CHO-K1, Membrane; settings: cho-k1; Not Active = under 50% inhibition at 10 µM
Chain of Sodium-dependent dopamine transporter (Q01959 whole entry): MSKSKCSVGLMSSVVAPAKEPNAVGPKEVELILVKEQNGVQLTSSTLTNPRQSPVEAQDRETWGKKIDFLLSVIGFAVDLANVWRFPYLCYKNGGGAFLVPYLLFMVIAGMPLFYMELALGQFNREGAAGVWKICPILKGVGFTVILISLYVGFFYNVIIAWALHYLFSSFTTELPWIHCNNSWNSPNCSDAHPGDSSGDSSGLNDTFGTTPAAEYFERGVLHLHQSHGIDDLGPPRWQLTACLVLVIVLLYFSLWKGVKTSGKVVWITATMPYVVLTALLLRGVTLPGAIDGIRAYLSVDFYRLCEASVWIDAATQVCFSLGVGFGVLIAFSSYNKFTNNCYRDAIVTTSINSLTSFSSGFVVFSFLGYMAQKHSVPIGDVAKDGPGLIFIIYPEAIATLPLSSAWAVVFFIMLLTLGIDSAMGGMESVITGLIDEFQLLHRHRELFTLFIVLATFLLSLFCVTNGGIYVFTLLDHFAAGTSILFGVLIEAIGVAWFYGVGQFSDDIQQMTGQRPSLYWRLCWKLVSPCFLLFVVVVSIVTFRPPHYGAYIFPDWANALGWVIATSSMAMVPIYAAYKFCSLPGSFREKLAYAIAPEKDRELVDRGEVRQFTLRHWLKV

Row | SMILES | IC50 [1] | Ki [1] | IC50 [2] | IC50 [3] | IC50 (Calcitonin receptor) | IC50 [4] | IC50 [5] | Ki [5] | IC50 [6] | IC50 [7] | IC50 (D(1A) dopamine receptor) | IC50 [9] | Ki [9] | IC50 [10] | Ki [10] | IC50 [11] | IC50 (Insulin receptor) | IC50 (Neutrophil elastase) | IC50 [12] | Ki [12] | other results
1 | Cc1ccc(C(=O)C(C)CN2CCCCC2)cc1 (stereo not given) [TOLPERISONE] | Not Active | Not Active | Not Active | Not Active | Not Active | Not Active | Not Active | Not Active | Not Active | Not Active | Not Active | Not Active | Not Active | Not Active | Not Active | Not Active | Not Active | Not Active | Not Active | Not Active | IC50 ([8]; read-out: IC50): 3.36 µM; Ki ([8]; read-out: Ki): 2.07 µM; IC50 [13]: Not Active; IC50 [14]: Not Active; IC50 [15]: Not Active; Ki [15]: Not Active; IC50 [16]: Not Active
2 | CN[C@H](CC(C)C)C(=O)N[C@H]1C(=O)N[C@@H](CC(N)=O)C(=O)N[C@H]2C(=O)N[C@H]3C(=O)N[C@H](C(=O)N[C@H](C(=O)O)c4cc(O)cc(O)c4-c4cc3ccc4O)[C@H](O)c3ccc(c(Cl)c3)Oc3cc2cc(c3O[C@@H]2O[C@H](CO)[C@@H](O)[C@H](O)[C@H]2O[C@H]2C[C@](C)(N)[C@H](O)[C@H](C)O2)Oc2ccc(cc2Cl)[C@H]1O [VANCOMYCIN] | Not Active | Not Active | Not Active | Not Active | Not Active | Not Active | Not Active | Not Active | Not Active | Not Active | Not Active | Not Active | Not Active | Not Active | Not Active | Not Active | Not Active | Not Active | Not Active | Not Active | IC50 [8]: Not Active; Ki [8]: Not Active; IC50 [13]: Not Active; IC50 [14]: Not Active; IC50 [15]: Not Active; Ki [15]: Not Active; IC50 [16]: Not Active
3 | CC(=O)[C@H]1CC[C@H]2[C@@H]3CCC4=CC(=O)CC[C@]4(C)[C@H]3CC[C@]12C [PROGESTERONE] | Not Active | Not Active | Not Active | Not Active | Not Active | Not Active | Not Active | Not Active | Not Active | Not Active | Not Active | Not Active | Not Active | Not Active | Not Active | Not Active | Not Active | Not Active | Not Active | Not Active | IC50 [8]: Not Active; Ki [8]: Not Active; IC50 [13]: Not Active; IC50 [14]: Not Active; IC50 ([15]; read-out: IC50): 19.6 µM; Ki ([15]; read-out: Ki): 6.7 µM; IC50 [16]: Not Active
4 | C[C@](N)(Cc1ccc(O)cc1)C(=O)O [METYROSINE] | Not Active | Not Active | Not Active | Not Active | Not Active | Not Active | Not Active | Not Active | Not Active | Not Active | Not Active | Not Active | Not Active | Not Active | Not Active | Not Active | Not Active | Not Active | Not Active | Not Active | IC50 [8]: Not Active; Ki [8]: Not Active; IC50 [13]: Not Active; IC50 [14]: Not Active; IC50 [15]: Not Active; Ki [15]: Not Active; IC50 [16]: Not Active
5 | CC(C)[C@H](N)C(=O)OCCOCn1cnc2c(=O)nc(N)[nH]c21 [VALACYCLOVIR] | Not Active | Not Active | Not Active | Not Active | Not Active | Not Active | Not Active | Not Active | Not Active | Not Active | Not Active | Not Active | Not Active | Not Active | Not Active | Not Active | Not Active | Not Active | Not Active | Not Active | IC50 [8]: Not Active; Ki [8]: Not Active; IC50 [13]: Not Active; IC50 [14]: Not Active; IC50 [15]: Not Active; Ki [15]: Not Active; IC50 [16]: Not Active
